{"source": "patent US10179355B2", "about": "“Bioremediation enhancing agents and methods of use” (JRW BIOREMEDIATION, LLC, priority 2007, dated 2019)", "assay_type_in_all_cases": "cell-based, Dehalococcoides and Dehalobacter spp.", "key": {"[1]": {"tested_on": "dechlorinating bacteria known to convert PCE to ethene", "assay": "Set F: Additional Novel Bioremediation Amendments, PCE dechlorination microcosms", "settings": "44 days, nominally 1,000 mg/L", "protocol": "(§1) The following components were used in the system for bioremediating contaminated ground water microcosms in Examples 2-8: • 160 milliliter (ml) stoppered serum bottles • 100 ml of anaerobic culture medium, groundwater containing an excess of bioavailable phosphorus and nitrogen at 0.5 mM Phosphate and 1 mM ammonium degassed with a nitrogen sparge • Nominally 1 gram of limestone • 19.54 micromoles (pmoles) Perchloroethene (PCE) • An excess of various electron donors were utilized • 3 ml of inoculum containing dechlorinating bacteria known to convert PCE to ethene.\nSet F included microcosms that contained Sodium Gluconate and Sodium Erythorbate. They started at concentrations that were nominally 1,000 mg/L as compared with the sodium lactate control at 7 mM (784 mg/L).\nThe objective of this set was to characterize the ability of these two novel bioremediation electron donors to completely dechlorinate PCE and characterize the electron donor utilization efficiency as compared with sodium lactate."}, "[2]": {"tested_on": "dechlorinating bacteria known to convert PCE to ethene", "assay": "Set E: Relative Efficiency of Novel Bioremediation Amendments (electron donors), PCE dechlorination microcosms", "description": "(§2) Sets B, C, D, E, and G further contain figures and tables showing results of the characterization of the Efficiency and the Relative Efficiency of electron donor usage. Efficiency may be defined as the percent of electron donor utilized for dechlorination, and may be calculated by dividing the pmoles of Chloride ion generated by the pmoles of electron donor consumed as measured by either Volatile Fatty Acid (VFA) analysis (Sets B, C, and G) or Chemical Oxygen Demand (COD) analysis (Set D and E). The Relative Efficiency of the electron donor utilization may be defined as the Efficiency of the Electron Donor divided by the Efficiency of the Lactate Control.\nas §1\nThe fifth set tested a variety of different electron donors comparing Crude Glycerin, Sodium Citrate, Ethanol and Whey all charged at nominally 1,000 mg/L to lactate at 7 mM (784 mg/L).\nThe objective of the study was to test bioremediation amendments for efficacy as electron donors as well as to characterize their Efficiency for dechlorination as compared to the Lactate Control."}, "[3]": {"tested_on": "dechlorinating bacteria known to convert PCE to ethene", "assay": "Set G: Additional Yeast Metabolites and Polysaccharides as Nutrients, PCE dechlorination microcosms (kinetics, Relative Rate, paired t-test)", "settings": "bottles 1-3", "description": "Certain contaminated materials (or sites) may contain indigenous microbial communities that are sufficient for complete bioremediation of contaminants. For such sites, there is no need to add microbes unless the indigenous microbes are genetically deficient in achieving the desired clean-up goals. For those sites that are microbiologically limited, microorganisms may be added to the contaminated materials (or sites). In one embodiment, the inoculum may be a mixed culture of halo-respiring bacteria that have been enriched to reach an optimal cell density. These mixed cultures of halo-respiring bacteria may be typically obtained from sediment samples from rivers, streams or any waterways. More specifically, the inoculum used in the Examples was originated from a Sangamon River sediment sample (Lodge Park, Piatt County, Ill.) See, e.g., Brennan, R. A., Sanford, R. A. and Werth, C. J. (2006). “Biodegradation of Tetrachloroethene by Chitin Fermentation Products in a Continuous Flow Column System.” Journal of Environ. Engr., June 665-673. This culture had grown for several years on PCE, anaerobic basal salts medium, Wolfe's vitamin solution and various electron donors including lactate (1-2 millimolar (mM)), formate (4 mM) and chitin using the Volatile Interface Transfer Apparatus (VITA) reactor system at the University of Illinois. Brennan, R. A., and Sanford, R. A. (2002). “Continuous steady-state method using Tenax for delivering tetrachloroethene to chlororespiring bacteria.” Appl. Environ. Microbiol., 68(3), 1464-1467. […] Using 16S rRNA gene-specific primers, both Dehalococcoides and Dehalobacter spp. were detected. Quantitative real-time PCR has been used to determine that approximately 1.65×10^7 Dehalococcoides gene copies were present per ml of culture.\nFor purpose of this disclosure, each bottle may be started with a certain amount of PCE. At subsequent times each bottle may be sampled for the degradation daughter products of PCE, namely trichloroethene (TCE), cis-dichloroethene (DCE), vinyl chloride (VC) and ethene, etc. Trans-DCE and 1,1-DCE are also daughter products of PCE, but they may not be detectable under the conditions disclosed here.\nThe rate of degradation may be determined by calculating the number of pmoles of chloride ions removed from PCE and subsequently from the amounts of the daughter products generated. The calculation may be performed as follows: Chloride (μmoles)=[…]−4×PCE (μmoles)−3×TCE (pmoles)−2×DCE (μmoles)−VC (μmoles)\nThe alternative chloride calculation is: Chloride (μmoles)=TCE (μmoles)+2×DCE (μmoles)+3×VC (μmoles)+4×Ethene (μmoles)\nNext, the dechlorination rate may be determined for each bottle at each time by dividing the Chloride generated by the time (days). The data may be then normalized to the lactate control by taking the ratio of Chloride Rate (pmoles/day) and the Lactate Control Chloride Rate (pmoles/day). This ratio is called Relative Rate and is dimensionless.\nAs shown in the Examples, a paired t-test has been conducted to calculate the probability that the Relative Rate of one group (i.e. with Nutrient) is greater than the other group (i.e. without Nutrient). The null hypothesis is that the underlying means of the two paired groups are equal. The Probability that one group has higher Relative Rates than the other group is shown in various tables in the Examples.\nas §1, with “ethene. […]” for “ethene.”"}, "[4]": {"tested_on": "dechlorinating bacteria known to convert PCE to ethene", "assay": "Set G: Efficiency by VFA Analysis", "description": "as §2\nThe method used to calculate the consumption of the electron donor measured the propionate, acetate and formate levels to calculate the consumption of electron donor over time. The lactate and propionate fermented very rapidly resulting in acetate and formate as the only measurable VFAs.\nSet G contained microcosms that tested two different Yeast Metabolites (YM3 and YM4) and a Polysaccharide (PS1) for kinetics and efficiency of electron donor utilization using lactate and molasses as the electron donors. PS1 was also tested as an electron donor by itself.\nLactate at 11.2 mM (1,000 mg/L) and nutrient amendment at 1% of the electron donor levels (˜10 mg/L). Triplicate bottles received 2 micro liters of PCE and 2 ml of inoculum. The bottles were sampled 5 times over a 138 day period."}}, "note": "Where “and” joins values, the source holds several entries; their conditions need not be identical. Identical values can stand only once.", "data": [{"compound": "O=C1O[C@H]([C@H](O)CO)C([O-])=C1O.[Na+]", "note": "[Na-Erythorbate, Sodium Erythorbate]", "values": [{"measurement": "Ethene generation (in words)", "setting": "[1]", "value": "starting to generate Ethene"}]}, {"compound": "O=C([O-])[C@H](O)[C@@H](O)[C@H](O)[C@H](O)CO.[Na+]", "note": "[Na-Gluconate, Sodium Gluconate]", "values": [{"measurement": "Ethene generation (in words)", "setting": "[1]", "value": "starting to generate Ethene"}]}, {"compound": "O=C([O-])CC(O)(CC(=O)[O-])C(=O)[O-].[Na+].[Na+].[Na+]", "note": "[Sodium Citrate]", "values": [{"measurement": "ability to dechlorinate PCE (in words)", "setting": "[2]", "value": "ability to completely dechlorinate PCE"}, {"measurement": "dechlorination speed compared to Lactate Control / other amendments (in words)", "setting": "[2]", "value": "almost as fast"}, {"measurement": "efficient as the Lactate Control (Relative Efficiency)", "setting": "[2]; electron donor nominally 1,000 mg/L vs lactate 7 mM", "value": 84, "unit": "%"}]}, {"compound": "inulin [PS1]", "values": [{"measurement": "Relative Rate", "setting": "[3]; time 35 days", "value": "0.03 and 0.04 and 0.05"}, {"measurement": "Relative Rate", "setting": "[3]; time 50 days", "value": "0.02 and 0.01 (2×)"}, {"measurement": "Relative Rate", "setting": "[3]; time 79 days", "value": "0.03 and 0.04 and 0.02"}, {"measurement": "Relative Rate", "setting": "[3]; time 138 days", "value": 0.00}, {"measurement": "Estimated % Efficiency", "setting": "[4]; e^- used dechlorination / e^- used donor", "value": 0.283, "unit": "%"}, {"measurement": "Relative Efficiency", "setting": "[4]; relative to Lactate Control = 100%", "value": 5, "unit": "%"}]}]}
